The test system of one experiment is E. coli. The experiment in a line: Range of MIC for E. coli strains. To be noted: Escherichia coli.
A further experiment has as its system Staph. Put plainly: Range of MIC for Staph. strains, including MRSA. To be noted: Staphylococcus aureus, MRSA.
[1] abbreviates: 20 h, read-out: Range of MIC, E. coli (Mouse Serum).
[2] abbreviates: read-out: Range of MIC, E. coli (Water).
Where [3] appears, read: read-out: Range of MIC, Staph (Mouse Serum).
Setting [4] is: read-out: Range of MIC, Staph (Water).

SMILES strings stand for the structures. ≈ marks a conversion by molar mass, not a printed value. Read-outs that look alike come from different tables or passages of the source.

In general, MIC refers to the lowest concentration found to suppress growth. Turning to `CN(C)c1cc(NC(=O)CN(C(=O)OCOC(=O)c2cc3ccccc3[nH]2)C(C)(C)C)c(O)c2c1C[C@H]1C[C@H]3[C@H](N(C)C)C(O)=C(C(N)=O)C(=O)[C@@]3(O)C(O)=C1C2=O` [Example 73, ({[(2-{[(5aR,6aS,7S,10aS)-9-(aminocarbonyl)-4,7-bis(dimethylamino)-1,8,10a,11-tetrahydroxy-10,12-dioxo-5,5a,6,6a,7,10,10a,12-octahydrotetracen-2-yl]amino}-2-oxoethyl)(tert-butyl)amino]carbonyl}oxy)methyl 1H-indole-2-carboxylate], the MIC with E. coli (setting [1]) is 0.5 to 1 µg/mL (≈ 0.623 to 1.25 µM); in the experiment with E. coli (setting [2]) it was greater than 64 µg/mL; with Staph. (setting [3]) it was 1 to 4 µg/mL (≈ 1.25 to 4.98 µM); with Staph. (setting [4]), 4 to 8 µg/mL (≈ 4.98 to 9.96 µM).
Regarding `CN(C)c1cc(NC(=O)CN(C(=O)OCOC(=O)COc2ccc(F)cc2)C(C)(C)C)c(O)c2c1C[C@H]1C[C@H]3[C@H](N(C)C)C(O)=C(C(N)=O)C(=O)[C@@]3(O)C(O)=C1C2=O` [Example 64], the MIC in the experiment on E. coli (setting [1]) is less than 0.12 µg/mL; in the experiment on E. coli (setting [2]) it was 0.12 to 1 µg/mL (≈ 0.148 to 1.23 µM); in the experiment with Staph. (setting [3]), 0.12 to 0.25 µg/mL (≈ 0.148 to 0.308 µM); with Staph. (setting [4]), 0.12 to 0.5 µg/mL (≈ 0.148 to 0.616 µM).
The corresponding values for `CN(C)c1cc(NC(=O)OCOC(=O)CC2CCCC2)c(O)c2c1C[C@H]1C[C@H]3[C@H](N(C)C)C(O)=C(C(N)=O)C(=O)[C@@]3(O)C(O)=C1C2=O` [Example 86, [({[(5aR,6aS,7S,10aS)-9-(aminocarbonyl)-4,7-bis(dimethylamino)-1,8,10a,11-tetrahydroxy-10,12-dioxo-5,5a,6,6a,7,10,10a,12-octahydrotetracen-2-yl]amino}carbonyl)oxy]methyl cyclopentylacetate] are 8 to 16 µg/mL (≈ 12.2 to 24.4 µM), greater than 64 µg/mL, 2 to 8 µg/mL (≈ 3.05 to 12.2 µM) and 8 µg/mL (≈ 12.2 µM).
For `CN(C)c1cc(NC(=O)CN(C(=O)OCOC(=O)c2ccc(C(=O)c3ccccc3)cc2)C(C)(C)C)c(O)c2c1C[C@H]1C[C@H]3[C@H](N(C)C)C(O)=C(C(N)=O)C(=O)[C@@]3(O)C(O)=C1C2=O` [Example 107, ({[(2-{[(5aR,6aS,7S,10aS)-9-(aminocarbonyl)-4,7-bis(dimethylamino)-1,8,10a,11-tetrahydroxy-10,12-dioxo-5,5a,6,6a,7,10,10a,12-octahydrotetracen-2-yl]amino}-2-oxoethyl)(tert-butyl)amino]carbonyl}oxy)methyl 4-benzoylbenzoate], in that order: greater than 64 µg/mL, 0.5 to 1 µg/mL (≈ 0.576 to 1.15 µM), 2 to 8 µg/mL (≈ 2.3 to 9.22 µM) and 0.5 to 1 µg/mL (≈ 0.576 to 1.15 µM).
For `CN(C)c1cc(NC(=O)CN(C(=O)OCOC(=O)c2cn(C)c3ccccc23)C(C)(C)C)c(O)c2c1C[C@H]1C[C@H]3[C@H](N(C)C)C(O)=C(C(N)=O)C(=O)[C@@]3(O)C(O)=C1C2=O` [Example 83, ({[(2-{[(5aR,6aS,7S,10aS)-9-(aminocarbonyl)-4,7-bis(dimethylamino)-1,8,10a,11-tetrahydroxy-10,12-dioxo-5,5a,6,6a,7,10,10a,12-octahydrotetracen-2-yl]amino}-2-oxoethyl)(tert-butyl)amino]carbonyl}oxy)methyl 1-methyl-1H-indole-3-carboxylate], the minimum inhibitory concentration (MIC) was greater than 64 µg/mL in the experiment on E. coli (setting [2]), 8 to 32 µg/mL (≈ 9.79 to 39.2 µM) in the experiment on Staph. (setting [3]) and 2 to 16 µg/mL (≈ 2.45 to 19.6 µM) in the experiment on Staph. (setting [4]).
Consider `CCC(CC)C(=O)OCOC(=O)Nc1cc(N(C)C)c2c(c1O)C(=O)C1=C(O)[C@]3(O)C(=O)C(C(N)=O)=C(O)[C@@H](N(C)C)[C@@H]3C[C@@H]1C2` [Example 85, [({[(5aR,6aS,7S,10aS)-9-(aminocarbonyl)-4,7-bis(dimethylamino)-1,8,10a,11-tetrahydroxy-10,12-dioxo-5,5a,6,6a,7,10,10a,12-octahydrotetracen-2-yl]amino}carbonyl)oxy]methyl 2-ethylbutanoate], for which the MIC was 1 to 2 µg/mL (≈ 1.55 to 3.1 µM) in the experiment on E. coli (setting [1]), greater than 64 µg/mL with E. coli (setting [2]), 1 to 2 µg/mL (≈ 1.55 to 3.1 µM) in the experiment on Staph. (setting [3]) and 4 to 16 µg/mL (≈ 6.2 to 24.8 µM) with Staph. (setting [4]).
Regarding `CN(C)c1cc(NC(=O)CN(C(=O)OCOC(=O)c2ccccc2-c2ccccc2)C(C)(C)C)c(O)c2c1C[C@H]1C[C@H]3[C@H](N(C)C)C(O)=C(C(N)=O)C(=O)[C@@]3(O)C(O)=C1C2=O` [Example 94, ({[(2-{[(5aR,6aS,7S,10aS)-9-(aminocarbonyl)-4,7-bis(dimethylamino)-1,8,10a,11-tetrahydroxy-10,12-dioxo-5,5a,6,6a,7,10,10a,12-octahydrotetracen-2-yl]amino}-2-oxoethyl)(tert-butyl)amino]carbonyl}oxy)methyl 1,1′-biphenyl-2-carboxylate], the MIC in the experiment with E. coli (setting [1]) was 32 to 64 µg/mL (≈ 38.1 to 76.2 µM); in the experiment on E. coli (setting [2]) it was greater than 64 µg/mL; in the experiment on Staph. (setting [3]), 16 to 32 µg/mL (≈ 19 to 38.1 µM); in the experiment on Staph. (setting [4]), greater than 64 µg/mL.
For `CN(C)c1cc(NC(=O)OCOC(=O)c2cccs2)c(O)c2c1C[C@H]1C[C@H]3[C@H](N(C)C)C(O)=C(C(N)=O)C(=O)[C@@]3(O)C(O)=C1C2=O` [Example 75, [({[(5aR,6aS,7S,10aS)-9-(aminocarbonyl)-4,7-bis(dimethylamino)-1,8,10a,11-tetrahydroxy-10,12-dioxo-5,5a,6,6a,7,10,10a,12-octahydrotetracen-2-yl]amino}carbonyl)oxy]methyl thiophene-2-carboxylate], the minimal inhibitory concentration (MIC) in the experiment with E. coli (setting [2]) was greater than 64 µg/mL; in the experiment on Staph. (setting [3]) it was 8 to 16 µg/mL (≈ 12.2 to 24.4 µM); in the experiment on Staph. (setting [4]) it was 16 to 32 µg/mL (≈ 24.4 to 48.7 µM).
`CN(C)c1cc(NC(=O)OCOC(=O)CC(C)(C)C)c(O)c2c1C[C@H]1C[C@H]3[C@H](N(C)C)C(O)=C(C(N)=O)C(=O)[C@@]3(O)C(O)=C1C2=O` [Example 79, [({[(5aR,6aS,7S,10aS)-9-(aminocarbonyl)-4,7-bis(dimethylamino)-1,8,10a,11-tetrahydroxy-10,12-dioxo-5,5a,6,6a,7,10,10a,12-octahydrotetracen-2-yl]amino}carbonyl)oxy]methyl 3,3-dimethylbutanoate]: the minimal inhibitory concentration (MIC) with E. coli (setting [2]) is greater than 64 µg/mL; in the experiment with Staph. (setting [3]) it was 4 µg/mL (≈ 6.2 µM); with Staph. (setting [4]) it was 4 to 8 µg/mL (≈ 6.2 to 12.4 µM).
In the case of `CCCCCCCCCCCCOc1ccc(C(=O)OCOC(=O)N(CC(=O)Nc2cc(N(C)C)c3c(c2O)C(=O)C2=C(O)[C@]4(O)C(=O)C(C(N)=O)=C(O)[C@@H](N(C)C)[C@@H]4C[C@@H]2C3)C(C)(C)C)cc1` [Example 104], the results for the MIC with E. coli (setting [1]), in the experiment on E. coli (setting [2]) and in the experiment with Staph. (setting [3]) were 8 to 16 µg/mL (≈ 8.44 to 16.9 µM), greater than 64 µg/mL and 16 to 64 µg/mL (≈ 16.9 to 67.5 µM), respectively.
With `CN(C)c1cc(NC(=O)CN(C(=O)OCOC(=O)c2ccc3ccccc3n2)C(C)(C)C)c(O)c2c1C[C@H]1C[C@H]3[C@H](N(C)C)C(O)=C(C(N)=O)C(=O)[C@@]3(O)C(O)=C1C2=O` [Example 84, ({[(2-{[(5aR,6aS,7S,10aS)-9-(aminocarbonyl)-4,7-bis(dimethylamino)-1,8,10a,11-tetrahydroxy-10,12-dioxo-5,5a,6,6a,7,10,10a,12-octahydrotetracen-2-yl]amino}-2-oxoethyl)(tert-butyl)amino]carbonyl}oxy)methyl quinoline-2-carboxylate], the MIC in the experiment with E. coli (setting [1]) is 2 to 4 µg/mL (≈ 2.45 to 4.91 µM); in the experiment on E. coli (setting [2]), greater than 64 µg/mL; with Staph. (setting [3]), 0.5 to 2 µg/mL (≈ 0.614 to 2.45 µM); with Staph. (setting [4]) it was 0.5 to 4 µg/mL (≈ 0.614 to 4.91 µM).
Consider `Cc1cc(C)cc(C(=O)OCOC(=O)Nc2cc(N(C)C)c3c(c2O)C(=O)C2=C(O)[C@]4(O)C(=O)C(C(N)=O)=C(O)[C@@H](N(C)C)[C@@H]4C[C@@H]2C3)c1` [Example 77, [({[(5aR,6aS,7S,10aS)-9-(aminocarbonyl)-4,7-bis(dimethylamino)-1,8,10a,11-tetrahydroxy-10,12-dioxo-5,5a,6,6a,7,10,10a,12-octahydrotetracen-2-yl]amino}carbonyl)oxy]methyl 3,5-dimethylbenzoate], for which the MIC is greater than 64 µg/mL in the experiment on E. coli (setting [2]), 2 to 4 µg/mL (≈ 2.95 to 5.89 µM) in the experiment on Staph. (setting [3]) and 4 to 32 µg/mL (≈ 5.89 to 47.1 µM) in the experiment on Staph. (setting [4]).

The values above are taken from US20070049564A1 (Wyeth, priority 2005, published 2007).
